# Assay: Inhibition of SDS-activated 20S proteasome activity in rabbit muscle
# Assay type: tissue-based, Oryctolagus cuniculus, Muscle tissue
row,Compound,pKi
1,CC(C)C[C@H](NC(=O)[C@H](CC(C)C)NC(=O)OCc1ccccc1)B(O)O,8.52
2,"CC(C)CC(NC(=O)[C@H](Cc1cccc2ccccc12)NS(=O)(=O)c1cccc2cccnc12)B(O)O (single isomer, unassigned)",8.77
3,CC(C)C[C@H](NC(=O)[C@H](Cc1ccccn1)NC(=O)c1ccc2ccccc2n1)B(O)O,8.85
4,CC(C)C[C@H](NC(=O)[C@@H](N)Cc1ccccn1)B(O)O,7.5
5,"CC(C)CC(NC(=O)[C@H](Cc1cccc2ccccc12)NC(=O)N1CCOCC1)B(O)O (single isomer, unassigned)",9.14
6,CC(C)C[C@H](NC(=O)[C@H](Cc1c[nH]cn1)NC(=O)OCc1ccccc1)B(O)O,7.6
7,CC(C)C[C@H](NC(=O)[C@H](Cc1cccnc1)NC(=O)N1CCOCC1)B(O)O,8.89
8,CC(C)C[C@H](NC(=O)[C@H](Cc1cccc2ccccc12)NC(=O)c1ccc2ccccc2n1)B(O)O,10.12
9,CC(=O)N[C@@H](Cc1cccnc1)C(=O)N[C@@H](CC(C)C)B(O)O,8.27
10,CC(C)C[C@H](NC(=O)[C@H](Cc1cccc2ccccc12)NC(=O)N1CCOCC1)B1OCCNCCO1,9.82
11,CC(=O)N[C@@H](Cc1c[nH]c2ccccc12)C(=O)N[C@@H](CC(C)C)B(O)O,8.89
12,CC(C)C[C@H](NC(=O)[C@H](Cc1ccccn1)NC(=O)N1CCOCC1)B(O)O,8.2
13,CC(C)C[C@H](NC(=O)[C@@H](N)Cc1cccc2ccccc12)B(O)O,8.12
14,CC(C)C[C@H](NC(=O)[C@H](Cc1cccnc1)NS(C)(=O)=O)B(O)O,8.2
15,CC(C)C[C@H](NC(=O)[C@H](Cc1ccccc1)NC(=O)c1cccnc1)B(O)O,9.6
16,CC(C)C[C@H](NC(=O)[C@H](Cc1ccccc1)NC(=O)NCc1ccccc1)B(O)O,9.85
17,CC(C)C[C@H](NC(=O)[C@H](Cc1ccccc1)NS(=O)(=O)c1cccc2cccnc12)B(O)O,8.36
18,"CC(C)CC(NC(=O)[C@H](Cc1ccccc1)NC(=O)CCc1ccccc1)B(O)O (single isomer, unassigned)",9.82
19,CC(C)C[C@H](NC(=O)[C@H](Cc1ccccc1)NC(=O)c1ccc2ccccc2n1)B(O)O,9.72
20,CC(C)C[C@H](NC(=O)[C@H](Cc1ccccn1)NS(=O)(=O)c1cccc2cccnc12)B(O)O,7.54

row,Compound,pKi
1,CC(C)C[C@H](NC(=O)[C@H](Cc1ccccc1)NC(=O)c1ccccn1)B(O)O,9.38
2,CC(C)C[C@H](NC(=O)[C@H](Cc1ccccc1)NC(=O)c1ccccc1)B(O)O,9.82
3,CC(C)C[C@H](NC(=O)[C@H](Cc1ccc(OCc2ccccc2)cc1)NC(=O)N1CCOCC1)B(O)O,9.64
4,CC(C)C[C@H](NC(=O)[C@H](Cc1ccccc1)NC(=O)c1cnccn1)B(O)O [BORTEZOMIB],9.22
5,"CC(C)CC(NC(=O)[C@H](Cc1cccc2ccccc12)NC(=O)OCc1ccccc1)B1O[C@@H]2[C@H]3C[C@@H](C[C@]2(C)O1)C3(C)C (single isomer, unassigned)",10
6,CC(C)C[C@H](NC(=O)[C@H](Cc1ccccn1)NC(=O)c1cnccn1)B(O)O,8.15
7,B[C@H](CC(C)C)NC(=O)[C@H](Cc1cccc2ccccc12)NC(=O)N1CCOCC1,8.7
8,CC(C)C[C@H](NC(=O)[C@H](Cc1ccccc1)NC(=O)N1CCOCC1)B(O)O,9.09
9,CB(C)[C@H](CC(C)C)NC(=O)[C@H](CCc1ccccc1)NC(=O)N1CCOCC1,8.66
10,CC(C)C[C@H](NC(=O)[C@H](Cc1ccccc1)NC(=O)OCc1ccccc1)B(O)O,9.89
11,CC(C)C[C@H](NC(=O)[C@H](Cc1cccc2ccccc12)NC(=O)OCc1ccccc1)B(O)O,10.08
12,CC(C)C[C@H](NC(=O)[C@H](Cc1cccc2ccccc12)NC(=O)c1ccccc1)B(O)O,10.06
13,CB(O)[C@H](CC(C)C)NC(=O)[C@H](Cc1cccc2ccccc12)NC(=O)N1CCOCC1,7
14,CC(C)C[C@H](NC(=O)[C@H](Cc1cccc2ccccc12)NC(=O)c1cnc2ccccc2n1)B(O)O,9.85
15,"CC(C)C[C@@H](NC(=O)[C@H](N)Cc1cccc2ccccc12)B(O)O.Cl (single isomer, unassigned)",8.41
16,CC(C)C[C@H](NC(=O)[C@H](Cc1cccc2ccccc12)NC(=O)C1CCCCC1)B(O)O,10.52
17,CC(C)C[C@H](NC(=O)[C@H](Cc1ccccc1)NC(=O)c1cc[nH]c1)B(O)O,9.85
18,CN[C@@H](Cc1cccc2ccccc12)C(=O)N[C@@H](CC(C)C)B(O)O,8.96
19,CB(C)[C@H](CC(C)C)NC(=O)[C@H](Cc1cccc2ccccc12)NC(=O)N1CCOCC1,6.19
20,CC(C)C[C@H](NC(=O)[C@H](Cc1ccc2ccccc2n1)NC(=O)N1CCOCC1)B(O)O,8.66

row,Compound,pKi
1,CC(C)C[C@H](NC(=O)[C@H](Cc1c[nH]c2ccccc12)NS(C)(=O)=O)B(O)O,8.24
2,"CC(C)CC(NC(=O)C(CC(C)C)NC(=O)OCc1ccccc1)B1O[C@@H]2[C@H]3C[C@@H](C[C@]2(C)O1)C3(C)C (single isomer, unassigned)",6.92
3,"CC(C)CC(NC(=O)[C@H](Cc1ccc(F)cc1)NC(=O)c1ccccn1)B(O)O (single isomer, unassigned)",9.08
4,CB(C)[C@H](CC(C)C)NC(=O)[C@H](CCc1ccccc1)NC(=O)c1ccc2ccccc2n1,8.55
5,CC(=O)N[C@@H](Cc1cccc2ccccc12)C(=O)N[C@@H](CC(C)C)B(O)O,9.77
6,CC(C)C[C@H](NC(=O)[C@H](Cc1ccc(OCc2ccccn2)cc1)NC(=O)N1CCOCC1)B(O)O,9.7
7,CC(C)C[C@H](NC(=O)[C@H](Cc1c[nH]c2ccccc12)NC(=O)N1CCOCC1)B(O)O,8.52
8,CC(C)C[C@H](NC(=O)[C@H](Cc1cccc2ccccc12)N(C)C(=O)OCc1ccccc1)B(O)O,9.02
9,CC(C)C[C@H](NC(=O)[C@H](Cc1ccc(O)cc1)NC(=O)N1CCOCC1)B(O)O,9.29
10,CC(C)C[C@H](NC(=O)[C@@H](N)Cc1cccnc1)B(O)O,6.82
11,CC(C)C[C@H](NC(=O)[C@H](Cc1ccc2ncccc2c1)NC(=O)N1CCOCC1)B(O)O,8.22
12,Cc1ccc(S(=O)(=O)N[C@@H](Cc2cccc3ccccc23)C(=O)N[C@@H](CC(C)C)B(O)O)cc1,9.77
13,CC(C)C[C@H](NC(=O)[C@H](Cc1ccccc1)NC(=O)c1ccoc1)B(O)O,9.77
14,CC(C)C[C@H](NC(=O)[C@H](Cc1ccc(F)cc1)NC(=O)c1cnccn1)B(O)O,9.02
15,CC(C)C[C@H](NC(=O)[C@H](Cc1cccc2ccccc12)NS(C)(=O)=O)B1OCCNCCO1,9.55
16,CC(C)C[C@H](NC(=O)[C@H](Cc1ccccn1)NC(=O)C1CCCCC1)B(O)O,8.96
17,CC(C)C[C@H](NC(=O)[C@H](Cc1ccccn1)NC(=O)c1ccccc1)B(O)O,9.12
18,CC(C)C[C@H](NC(=O)[C@H](CC(C)C)N(C)C(=O)OCc1ccccc1)B(O)O,6

# — ChEMBL document CHEMBL1137708, “3D-QSAR studies of boron-containing dipeptides as proteasome inhibitors with CoMFA and CoMSIA methods” (Eur J Med Chem, 2009)
